Read-outs that look alike come from different tables or passages of the source.
Tests used:
HT-29 = conditions: HT-29, previous studies (Lim et al. 2007); read-out: IC50 dose of 5-FU; cited from earlier work
[1] = system: FoxM1 and phospho-VEGF receptor1 protein; experiment: Immunoblotting of angiogenic markers in HT-29 and HCT-15 cell lysates; format: cell-based, human; conditions: vs untreated and single compound groups
Method: (§1) FIG. 6. AGP and MLT synergistically downregulates angiogenic signaling molecules in colon cancer cells. HT-29 (left) and HCT-15 (right) cells were analyzed for A. VEGF165, B. VEGF189, C. VEGF receptor1, D. FoxM1, E. PTTG1 mRNA expression in the presence and absence of AGP, MLT and 5-FU. F. HT-29 and HCT-15 cell lysates were subjected for protein expression as indicated. (G-H). Quantification of FoxM1 was normalized with GAPDH and (I-J). p-VEGF receptor1 was normalized with total VEGF receptor 1. Statistical significance was determined using one-way ANOVA followed Bonferroni test (*P<0.05, **P<0.01, ***P<0.001).
(§2) Immunoblotting was performed as previously described (Banerjee, Basu, et al. 2016). The primary antibodies used were against ATF6 (#MA5-16172; Thermo Fisher Scientific) phospho-PERK (Thr 981) (#sc-32577; Santa Cruz biotechnology), IRE-1 (#3294S; Cell Signaling), phospho-VEGFReceptor1/Flt-1 (Y1213) (#AF4170; R&D systems,), total VEGFReceptor1 (R&D systems, #AF321), FoxM1 (R&D systems, #AF3975), and GAPDH (#G8795; Sigma Aldrich). Blots were incubated with HRP-conjugated secondary antibodies followed by enhanced chemiluminescence (ECL) detection. Images were captured using a Syngene G Box digital imager (Frederick, Md.) and results were quantified with densitometry as previously described (Blanchard et al. 2018).

[2] = system: IRE-1, ATF6, phospho-PERK protein; experiment: Immunoblotting of ER stress markers in HT-29 and HCT-15 cell lysates; format: cell-based, human; conditions: 5-FU treatment group; except IRE-1 protein level in HT-29
Method: (§3) FIG. 5. AGP and MLT synergistically induce ER stress-related molecules. HT-29 and HCT-15 cells were treated with AGP, MLT, AGP+MLT, and 5-FU for 48 h as indicated in the methodology section. Transcriptional level of expression of ER stress associated genes was determined by qRT-PCR for A. IRE-1, B. ATF6, and C. CHOP. Bar graphs show quantitative results normalized to GAPDH mRNA levels. Results are from three independent experiments. D. Treated and untreated cells were lysed, and protein expression was determined by immunoblotting for IRE-1, ATF6, phospho-PERK, and GAPDH.
as §2

[3] = cited from earlier work
[4] = system: VEGF165, VEGF189, VEGF receptor1, VEGF Receptor2, FoxM1, PTTG1 mRNA; experiment: qRT-PCR of angiogenic signaling molecules in HT-29 and HCT-15 cells; format: cell-based, human
Method: as §1
(§4) Gene expression was evaluated as previously described (Banerjee et al., Oncotarget, (2016), 7(27):41432-41444). Primer sequences are listed in Supplementary Table 1. Relative gene expression changes were calculated using the 2^−ΔΔCT method, and expression normalization was accomplished using the housekeeping gene, GAPDH.

HCT-15 = conditions: HCT-15, previous studies (Lim et al. 2007); read-out: IC50 dose of 5-FU; cited from earlier work
IRE-1, ATF6, CHOP mRNA = experiment: qRT-PCR of ER stress associated genes in HT-29 and HCT-15 cells; format: cell-based, human; conditions: 5-FU at IC50 dose; for CHOP mRNA expression: AGP 9.3 μM, MLT 0.18 mM alone or combined, 48 h, both cell lines
Method: as §3, §4

HT-29 cells = experiment: MTT cell viability assay with CompuSyn / Chou-Talalay combination index analysis; format: cell-based, human; conditions: for IC50: Homo sapiens, HT-29, 48 h, median-effect plot, combination = total dose at 1:20, read-out: Dm values for HT-29
Method: (§5) Cell cytotoxicity in the presence or absence of AGP and MLT was assessed using the MTT (Sigma Aldrich) assay as previously described (Banerjee et al., Helicobacter, (2016), 21(5):395-404). Cells (1×10^4) were plated in phenol-free complete RPMI media and incubated at 37° C. under 5% CO2 for 24 h. Cells were then simultaneously treated in quadruplicate wells with AGP (0-150 μM), MLT (0-3000 μM) or vehicle controls (0.1% DMSO). The media was replaced with MTT solution for each plate at its respective timepoint (either 24, 48, 72 h) followed by the addition of DMSO to dissolve the formazan crystals. Absorbance at 570 nm was determined using a microplate reader (Model 550, Bio-Rad, USA). The percent cell viability relative to the vehicle control was calculated using the following equation:
(§6) [formula] The IC50 value and slope (m) of the concentration-response curves were calculated using the CompuSyn software developed by Chou and Martin (Tun et al., Mar Drugs, (2019), 17(9): 10.3390/md17090536). Colospheroid Formation Assay
(§7) To determine an upper bound on both the individual doses drugs, we measured maximum cell death (near 0% cell viability). AGP achieved this level at 150 μM and MLT at 3 mM for 48 h (Banerjee et al., Helicobacter, (2016), 21(5):395-404, Reiter et al., Int J Mol Sci, (2017), 18(4), doi: 10.3390/ijms18040843). […] Serial dilution was conducted up to 6 times to anchor the observed cell deaths along the dose range.
(§8) To understand the Combination Index (CI), we first defined the fraction affected (Fa) and its counterpart, fraction unaffected (Fu). In our case, the percentage of viable cells determines the […], and 100—percentage of viable cells determines the Fu. The dose effect curve provides an overview of Fa vs. Dose (FIG. 2A and FIG. 2B). As expected, the individual AGP and MLT dose effect curves cradle the combinational dose effect curve below and above, respectively. This means that the total combinational dose to achieve the same Fa is greater than AGP's dose and less than MLT's dose. However, due to the 1:20 combinational ratio, we require less AGP and MLT absolutely.
(§9) [formula] The ratio between Fa and Fu aids in understanding when a given dose achieves the IC50 value. At 50% cell viability,
(§10) [formula] To linearly scale the datapoints, we also took the log of Dose. In this manner, the x intercept of the Median-Effect plot—also known as Dm—precisely determines the dose required to achieve the IC50 value. Immunoblotting

HCT-15 cells = experiment: as above; format: cell-based, human; conditions: for IC50: Homo sapiens, HCT-15, 48 h, median-effect plot, combination = total dose at 1:20, read-out: Dm values for HCT-15
Method: as §5, §6, §7, §8, §9, §10

[5] = molecular target: Ki-67 in patient derived organoids (PDOD); experiment: Ki-67 immunofluorescence in patient derived organoids; format: cell-based, human; conditions: AGP 15 μM, MLT 0.5 mM or both, 48 h; vs untreated
Method: Organoid cells were generated from stage 3 metastatic cancer tissue and cultured as previously described (Blanchard et al., Cell Physiol Biochem, (2018), 48(3):1259-1273; Banerjee et al., Gastroenterology and Hepatology International Journal, (2017), 2(2):1-2; Blanchard et al., Cancers (Basel), (2019), 11(2)). The cultures were passaged when the aggregates reached a diameter of approximately 800 μm. Organoids were treated with 15 μM AGP, 0.5 mM MLT, or both for 48 h. Treated and untreated organoids were subjected to morphological analysis and immunofluorescence for Ki67 expression.
Patient derived organoids were grown in 1:1 mixture of Matrigel and advanced DMEM:F12 (Life Technologies) supplemented with 1× penicillin/streptomycin, lx glutamine, 1×N2, 1×B27, 1 mM N-acetyl-L-cysteine, 20 ng/ml fibroblast growth factor and 50 ng/ml epidermal growth factor at 37° C. on a 4-chambered glass slide. […]
Fluorescence microscopy and colony counting were performed using an inverted fluorescence microscope (Olympus IX-71, Pennsylvania, USA). […] Fluorescence intensity was quantified using ImageJ software version 1.39 (NIH). RGB composite images from control and treated groups were created using Axion Vision rel, 4.6 and analyzed. […]

HT-29 and HCT-15 cells = experiment: MTT cell viability assay, one value given for both cell lines; format: cell-based, human; conditions: for IC50: Homo sapiens
Method: as §5, §6, §7, §8, §9, §10

T84 and Colo 205 = conditions: cited from earlier work
Cyclin B1, Prx, Trx = conditions: T84 and Colo 205 cell lysates, earlier publication; cited from earlier work
CRC = conditions: previous studies; read-out: IC50 value of MLT for CRC; cited from earlier work

O=c1[nH]cc(F)c(=O)[nH]1 [5-FU, 5-Fluorouracil]
IC50 (HT-29): 13 µM | FoxM1 protein [1]: No further reduction | phospho-VEGF receptor1 protein [1]: No further reduction | ER stress marker protein expression [2]: No significant changes | overall response rate to 5-FU in adjuvant treatment ([3]; adjuvant treatment): less than 15% | overall response of 5-FU in advanced CRC ([3]; advanced CRC): about 10% | FoxM1 mRNA level [4]: no more significant reduction | PTTG1 mRNA level [4]: no more significant reduction | mVEGF165 level ([4]; both cell lines, vs untreated): increased | mVEGF189 level ([4]; both cell lines, vs untreated): increased | IC50 (HCT-15): ~5 µM | ATF6 mRNA expression (IRE-1, ATF6, CHOP mRNA; HCT-15): induced significant | IRE-1 mRNA expression (IRE-1, ATF6, CHOP mRNA; HT-29 and HCT-15): induced significant | CHOP mRNA expression (IRE-1, ATF6, CHOP mRNA): attenuated

C=C1CC[C@@H]2[C@](C)(CO)[C@H](O)CC[C@@]2(C)[C@@H]1C/C=C1/C(=O)OC[C@H]1O [AGP, andrographolide]
potency of AGP relative to MLT (HT-29 cells; HT-29, dose-effect curve): 40 fold | IC50 (HT-29 cells): 25.6 µM | potency of AGP relative to MLT (HCT-15 cells; HCT-15, dose-effect curve): 26 fold | IC50 (HCT-15 cells): 26.5 µM | Ki-67 expression [5]: greatly reduced | dose achieving maximum cell death (near 0% cell viability) (HT-29 and HCT-15 cells; 48 h): 150 µM | IC50 (HT-29 and HCT-15 cells; 24 h (stated consistent with 48 h), read-out: IC50 value of AGP): 30 µM | IC50 (HT-29 and HCT-15 cells; AGP single dose, 48 h, read-out: IC50 values): 30 µM | potency of AGP relative to MLT (basis of 1:20 ratio) (HT-29 and HCT-15 cells; from maximum cell death doses): 20 times | IC50 (T84 and Colo 205; 48 h, published results, read-out: IC50 value for AGP as a single therapy): 45 µM | IC50 (T84 and Colo 205; T84 and Colo 205, previous study, read-out: IC50 value of AGP): 45 µM | Cyclin B1 expression, AGP alone (Cyclin B1, Prx, Trx): suppresses | CHOP mRNA expression (IRE-1, ATF6, CHOP mRNA): Significant CHOP mRNA expression

COc1ccc2[nH]cc(CCNC(C)=O)c2c1 [MLT, melatonin]
IC50 (CRC): 1000 to 2500 µM | IC50 (HT-29 cells): 1000 µM | IC50 (HCT-15 cells): 683 µM | Ki-67 expression [5]: greatly reduced | cell number at 24 h (HT-29 and HCT-15 cells; 24 h): transient increase in the cell number | dose achieving maximum cell death (near 0% cell viability) (HT-29 and HCT-15 cells; 48 h): 3000 µM | IC50 (HT-29 and HCT-15 cells; MLT single dose, 48 h, read-out: IC50 values): 1000 µM

Reference: patent US12589088B2, “Compositions and methods for treating cancer with andrographolide and melatonin combination therapy” (University of Maryland, Baltimore, priority 2020, dated 2026)
